Assay results taken from ChEMBL document CHEMBL1201862, “PubChem BioAssay data set” (2004).
Calls of active or inactive are those of the source.

Assays:
HEK293 = assay: cells; conditions: Homo sapiens
[1] = biological target: Nucleotide-binding oligomerization domain-containing protein 2 (Homo sapiens, UniProt Q9HC29); assay: PubChem AID 2334; assay type: functional
Tumor necrosis factor = Tumor necrosis factor (Homo sapiens, UniProt P01375); assay: TNFa-triggered NF-kB activation inhibitors, SAR follow-up, cell-based, revised (AID 2337); assay type: functional
[2] = biological target: T1, Nucleotide-binding oligomerization domain-containing protein 1 (Homo sapiens, UniProt Q9Y239); assay: NOD1 signaling inhibitors, SAR follow-up, revised (AID 2333); assay type: functional
T1 sequence (Q9Y239 whole entry): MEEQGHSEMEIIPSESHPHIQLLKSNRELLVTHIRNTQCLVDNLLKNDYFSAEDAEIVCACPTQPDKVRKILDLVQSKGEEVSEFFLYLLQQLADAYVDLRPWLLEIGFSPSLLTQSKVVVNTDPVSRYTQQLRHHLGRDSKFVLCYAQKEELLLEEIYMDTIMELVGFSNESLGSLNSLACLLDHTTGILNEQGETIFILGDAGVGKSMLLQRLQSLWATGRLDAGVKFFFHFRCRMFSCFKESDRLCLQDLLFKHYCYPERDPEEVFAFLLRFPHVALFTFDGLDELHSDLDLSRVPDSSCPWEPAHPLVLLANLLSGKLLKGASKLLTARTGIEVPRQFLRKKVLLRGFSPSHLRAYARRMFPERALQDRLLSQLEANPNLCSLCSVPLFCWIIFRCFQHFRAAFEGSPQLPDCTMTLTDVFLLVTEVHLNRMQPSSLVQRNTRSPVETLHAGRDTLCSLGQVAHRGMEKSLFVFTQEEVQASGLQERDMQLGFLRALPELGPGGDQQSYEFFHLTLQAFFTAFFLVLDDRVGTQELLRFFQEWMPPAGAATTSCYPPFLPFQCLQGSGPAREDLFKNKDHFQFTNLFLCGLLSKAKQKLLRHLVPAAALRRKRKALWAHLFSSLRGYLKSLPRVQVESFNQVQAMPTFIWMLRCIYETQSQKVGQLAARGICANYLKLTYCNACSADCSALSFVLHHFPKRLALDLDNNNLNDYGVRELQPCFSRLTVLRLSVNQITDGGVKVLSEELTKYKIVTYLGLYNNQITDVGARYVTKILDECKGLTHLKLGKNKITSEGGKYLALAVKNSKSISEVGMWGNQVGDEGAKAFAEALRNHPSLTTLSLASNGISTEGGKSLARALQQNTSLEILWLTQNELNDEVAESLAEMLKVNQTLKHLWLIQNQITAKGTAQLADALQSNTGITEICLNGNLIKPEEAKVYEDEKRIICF

[3] = biological target: Voltage-dependent T-type calcium channel subunit alpha-1H (Homo sapiens, UniProt O95180); assay: Cav3.2 T-type channel blockers, cell-based, SynthLib3 library, HEK293 Cav3.2, fluorescence (AID 493041); assay type: functional
[4] = biological target: Delta-type opioid receptor (Homo sapiens, UniProt P41143); assay: Counterscreen for agonists of heterodimerization of the mu 1 (OPRM1) and delta 1 (OPRD1) opioid receptors: Luminescence-based cell-based high throughput dose response assay to identify agonists of OPRD1 homodimerization. [Related pubchem assays (depositor defined):AID504326, AID504355, AID504692, AID504904, AID504905]; assay type: functional
Mu-type opioid receptor = Mu-type opioid receptor (Homo sapiens, UniProt P35372); assay: Counterscreen for agonists of heterodimerization of the mu 1 (OPRM1) and delta 1 (OPRD1) opioid receptors: Luminescence-based cell-based high throughput dose response assay to identify agonists of OPRM1 homodimerization.; assay type: functional;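 note: U2OS cells expressing OPRM1 and beta-arrestin as split beta-galactosidase partners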
[5] = biological target: T2, Short transient receptor potential channel 4 (Mus musculus, UniProt Q9QUQ5); assay: mouse TRPC4 channel activators, dose response, cell-based, HEK293 TRPC4/mu-opioid, Fluo-4 calcium (AID 434937); assay type: functional
T2 sequence (Q9QUQ5 whole entry): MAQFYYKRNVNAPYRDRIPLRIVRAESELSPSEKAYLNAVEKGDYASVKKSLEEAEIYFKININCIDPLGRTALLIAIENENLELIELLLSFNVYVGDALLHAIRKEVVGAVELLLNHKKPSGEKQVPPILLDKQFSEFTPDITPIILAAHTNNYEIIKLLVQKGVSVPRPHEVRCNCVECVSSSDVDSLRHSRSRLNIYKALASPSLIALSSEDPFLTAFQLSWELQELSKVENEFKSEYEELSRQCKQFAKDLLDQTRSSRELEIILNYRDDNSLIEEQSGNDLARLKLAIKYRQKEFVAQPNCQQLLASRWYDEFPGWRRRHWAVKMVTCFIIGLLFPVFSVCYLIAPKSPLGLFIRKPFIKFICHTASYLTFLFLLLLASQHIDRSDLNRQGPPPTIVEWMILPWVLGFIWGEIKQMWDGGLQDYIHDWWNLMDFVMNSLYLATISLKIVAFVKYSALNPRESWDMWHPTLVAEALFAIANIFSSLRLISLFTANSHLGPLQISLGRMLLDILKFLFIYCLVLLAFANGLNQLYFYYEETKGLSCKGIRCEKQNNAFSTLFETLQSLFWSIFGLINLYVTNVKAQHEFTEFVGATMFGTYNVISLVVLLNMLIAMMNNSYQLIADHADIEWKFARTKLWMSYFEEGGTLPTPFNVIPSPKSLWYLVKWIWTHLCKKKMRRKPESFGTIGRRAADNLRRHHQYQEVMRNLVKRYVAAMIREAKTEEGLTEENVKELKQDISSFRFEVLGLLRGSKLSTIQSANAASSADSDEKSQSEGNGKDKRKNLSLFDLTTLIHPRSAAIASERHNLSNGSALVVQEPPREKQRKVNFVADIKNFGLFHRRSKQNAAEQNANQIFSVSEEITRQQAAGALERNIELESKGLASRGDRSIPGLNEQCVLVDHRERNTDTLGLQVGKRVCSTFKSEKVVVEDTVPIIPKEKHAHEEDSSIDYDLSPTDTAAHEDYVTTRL

[6] = biological target: 5-hydroxytryptamine receptor 5A (Homo sapiens, UniProt P47898); assay: Counterscreen for agonists of OPRM1-OPRD1 heterodimerization: luminescence-based cell-based high throughput dose response assay to identify agonists of 5-hydroxytryptamine (serotonin) 5A receptor (HTR5A). [Related pubchem assays (depositor defined):AID504326, AID504355, AID504692, AID504904, AID504905]; assay type: functional
[7] = biological target: T2, Short transient receptor potential channel 4; assay: mouse TRPC4 channel inhibitors, dose response, cell-based, HEK293 TRPC4/mu-opioid, Fluo-4 calcium (AID 434942); assay type: functional;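 note: potency of inhibitors blocking the TRPC4 calcium response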
[8] = insulin promoter down-regulators in MIN6 cells, imaging, high-content screening, mouse beta cells (AID 1628); assay type: functional
[9] = off-target signal loss in HeLa-CEM21 co-culture – HeLa F-luc CTL cells, cherry-picked, counter-screen for HIV-1 Env fusion inhibitor project, dose response (AID 652040); assay type: functional, cell-based;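 note: potency for signal decrease marking cytotoxic or nonspecific inhibition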
[10] = CEM21 lymphoblast cell cytotoxicity, dose response, cytotoxicity control for viral fusion inhibitor project, CellTiter-Glo luminescence, cherry-picked (AID 652042); assay type: functional, cell-based;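 note: potency for signal decrease meaning cytotoxicity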
[11] = biological target: Cyclin-dependent kinase 5/CDK5 activator 1 (Homo sapiens, UniProt Q00535); assay: CDK5/p35 kinase inhibitors, dose response, biochemical, cherry-picked samples, set 2 (AID 504545)
[12] = inhibitors of HIV Env-driven cell fusion, dose response, cherry-pick (AID 652057); assay type: functional, cell-based
[13] = ZM109 Env clade C HIV-1 fusion inhibitors, dose response, HeLa effector, CEM target cells, luciferase, cherry-pick (AID 652058); assay type: functional, cell-based
[14] = inhibitors of clade B AD8 Env fusion, dose response, cell-based, cherry-pick (AID 652062); assay type: functional;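 note: luciferase signal from cell-cell fusion driven by HIV-1 clade B AD8 Env; potency is for inhibitors of fusion seen as a drop in luminescence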
[15] = cytotoxicity in MIN6 insulinoma cells, dose response, cytotoxicity control, cell-based, mouse insulinoma (AID 2122); assay type: functional;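 note: confirmatory high-throughput counterscreen run to flag cytotoxic compounds; mouse MIN-6 beta cells carrying an insulin promoter eGFP reporter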

Sequence of Delta-type opioid receptor (P41143 whole entry): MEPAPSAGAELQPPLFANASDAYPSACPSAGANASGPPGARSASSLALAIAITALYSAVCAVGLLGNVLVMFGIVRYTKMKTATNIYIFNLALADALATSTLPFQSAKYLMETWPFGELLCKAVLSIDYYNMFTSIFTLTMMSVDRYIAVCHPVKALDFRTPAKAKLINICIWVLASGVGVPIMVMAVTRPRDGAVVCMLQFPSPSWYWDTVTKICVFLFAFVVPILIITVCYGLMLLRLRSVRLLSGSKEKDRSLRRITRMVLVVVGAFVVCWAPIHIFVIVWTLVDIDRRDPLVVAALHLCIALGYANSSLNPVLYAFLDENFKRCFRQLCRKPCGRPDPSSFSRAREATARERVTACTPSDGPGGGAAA
Sequence of Voltage-dependent T-type calcium channel subunit alpha-1H (O95180 whole entry): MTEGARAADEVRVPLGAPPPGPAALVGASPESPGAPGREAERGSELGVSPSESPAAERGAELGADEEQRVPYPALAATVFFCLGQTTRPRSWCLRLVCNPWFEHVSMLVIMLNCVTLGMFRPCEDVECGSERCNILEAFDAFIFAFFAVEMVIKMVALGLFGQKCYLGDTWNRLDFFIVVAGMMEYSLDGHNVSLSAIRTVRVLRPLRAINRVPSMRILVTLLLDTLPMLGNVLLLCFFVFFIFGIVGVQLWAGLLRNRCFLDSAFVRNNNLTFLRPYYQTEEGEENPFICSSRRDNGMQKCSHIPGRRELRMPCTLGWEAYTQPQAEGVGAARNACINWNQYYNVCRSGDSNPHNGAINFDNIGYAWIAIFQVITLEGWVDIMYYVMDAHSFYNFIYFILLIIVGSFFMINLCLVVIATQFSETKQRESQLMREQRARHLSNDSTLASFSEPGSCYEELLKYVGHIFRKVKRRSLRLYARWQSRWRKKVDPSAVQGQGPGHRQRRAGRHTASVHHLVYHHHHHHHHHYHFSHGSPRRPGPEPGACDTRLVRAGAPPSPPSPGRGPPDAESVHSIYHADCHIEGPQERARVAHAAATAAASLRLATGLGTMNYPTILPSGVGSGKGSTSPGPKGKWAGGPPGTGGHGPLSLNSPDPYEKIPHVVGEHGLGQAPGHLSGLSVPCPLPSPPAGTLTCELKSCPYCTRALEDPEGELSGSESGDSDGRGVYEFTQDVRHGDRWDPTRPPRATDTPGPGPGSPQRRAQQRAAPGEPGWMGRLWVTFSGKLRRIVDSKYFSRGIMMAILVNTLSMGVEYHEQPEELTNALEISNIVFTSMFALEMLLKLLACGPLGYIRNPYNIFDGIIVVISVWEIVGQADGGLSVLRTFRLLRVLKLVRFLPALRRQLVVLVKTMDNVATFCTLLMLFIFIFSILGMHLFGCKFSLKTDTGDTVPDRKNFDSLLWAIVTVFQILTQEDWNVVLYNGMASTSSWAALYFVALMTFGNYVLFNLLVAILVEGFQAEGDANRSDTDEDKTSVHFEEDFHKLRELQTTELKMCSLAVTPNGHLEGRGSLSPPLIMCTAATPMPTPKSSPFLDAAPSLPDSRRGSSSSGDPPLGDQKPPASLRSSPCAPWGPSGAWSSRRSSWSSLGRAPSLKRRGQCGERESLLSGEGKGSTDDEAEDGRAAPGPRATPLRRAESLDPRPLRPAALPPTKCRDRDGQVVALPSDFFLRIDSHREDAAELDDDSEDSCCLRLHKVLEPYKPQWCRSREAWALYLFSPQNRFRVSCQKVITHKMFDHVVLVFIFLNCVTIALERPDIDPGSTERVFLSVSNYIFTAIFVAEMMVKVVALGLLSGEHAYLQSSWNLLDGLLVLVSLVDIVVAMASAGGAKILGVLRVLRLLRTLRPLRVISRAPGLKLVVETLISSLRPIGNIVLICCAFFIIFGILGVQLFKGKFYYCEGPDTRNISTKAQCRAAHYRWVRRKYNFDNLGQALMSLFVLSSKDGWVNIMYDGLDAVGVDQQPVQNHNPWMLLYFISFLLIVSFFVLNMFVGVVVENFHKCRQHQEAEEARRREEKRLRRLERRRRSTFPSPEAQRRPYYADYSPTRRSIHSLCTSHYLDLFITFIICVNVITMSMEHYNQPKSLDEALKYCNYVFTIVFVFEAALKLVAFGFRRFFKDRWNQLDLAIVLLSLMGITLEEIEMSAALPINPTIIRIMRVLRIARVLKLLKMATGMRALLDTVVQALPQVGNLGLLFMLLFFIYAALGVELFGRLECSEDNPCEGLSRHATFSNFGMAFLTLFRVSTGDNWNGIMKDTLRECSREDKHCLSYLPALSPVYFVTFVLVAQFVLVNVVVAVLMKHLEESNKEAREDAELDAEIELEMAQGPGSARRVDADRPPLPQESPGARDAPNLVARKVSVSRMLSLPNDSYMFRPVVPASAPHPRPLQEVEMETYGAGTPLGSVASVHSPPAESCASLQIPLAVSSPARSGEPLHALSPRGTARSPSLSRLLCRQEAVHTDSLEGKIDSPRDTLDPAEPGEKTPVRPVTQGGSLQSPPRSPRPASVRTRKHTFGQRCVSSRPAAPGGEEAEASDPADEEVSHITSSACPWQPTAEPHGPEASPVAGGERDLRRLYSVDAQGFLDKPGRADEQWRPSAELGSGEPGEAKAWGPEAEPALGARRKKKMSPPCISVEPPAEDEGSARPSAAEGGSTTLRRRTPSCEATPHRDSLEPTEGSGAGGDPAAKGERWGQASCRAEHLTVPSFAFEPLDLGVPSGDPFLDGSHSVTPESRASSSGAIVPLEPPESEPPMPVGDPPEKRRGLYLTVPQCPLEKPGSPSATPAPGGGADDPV
Sequence of Tumor necrosis factor (P01375 whole entry, the tested form may be a part): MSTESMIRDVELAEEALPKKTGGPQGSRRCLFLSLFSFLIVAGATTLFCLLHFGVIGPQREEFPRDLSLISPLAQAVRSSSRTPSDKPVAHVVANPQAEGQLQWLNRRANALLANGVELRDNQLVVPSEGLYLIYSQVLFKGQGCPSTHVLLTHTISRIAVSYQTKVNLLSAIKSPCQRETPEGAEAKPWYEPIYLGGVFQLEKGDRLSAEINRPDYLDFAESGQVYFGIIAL
Sequence of Mu-type opioid receptor (P35372 whole entry): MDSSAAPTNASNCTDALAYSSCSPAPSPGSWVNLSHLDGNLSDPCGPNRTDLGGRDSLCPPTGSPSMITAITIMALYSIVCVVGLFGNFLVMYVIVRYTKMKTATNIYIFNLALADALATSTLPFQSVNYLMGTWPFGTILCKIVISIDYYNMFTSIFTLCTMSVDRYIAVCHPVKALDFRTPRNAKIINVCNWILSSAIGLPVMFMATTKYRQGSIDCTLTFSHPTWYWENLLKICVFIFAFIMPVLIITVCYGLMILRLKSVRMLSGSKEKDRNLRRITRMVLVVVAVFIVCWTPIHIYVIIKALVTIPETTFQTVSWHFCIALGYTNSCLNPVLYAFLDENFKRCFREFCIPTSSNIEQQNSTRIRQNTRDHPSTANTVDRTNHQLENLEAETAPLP
Sequence of 5-hydroxytryptamine receptor 5A (P47898 whole entry): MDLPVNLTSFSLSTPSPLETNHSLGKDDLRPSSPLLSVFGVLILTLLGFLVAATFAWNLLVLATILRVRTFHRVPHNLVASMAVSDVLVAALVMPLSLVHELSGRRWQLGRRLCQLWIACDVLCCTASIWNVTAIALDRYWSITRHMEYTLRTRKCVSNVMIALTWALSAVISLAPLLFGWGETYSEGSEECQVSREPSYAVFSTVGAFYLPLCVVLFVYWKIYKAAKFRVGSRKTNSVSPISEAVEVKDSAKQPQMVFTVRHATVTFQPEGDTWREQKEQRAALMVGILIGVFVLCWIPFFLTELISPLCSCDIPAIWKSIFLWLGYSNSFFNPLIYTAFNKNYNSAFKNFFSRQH
Sequence of Nucleotide-binding oligomerization domain-containing protein 2 (Q9HC29 whole entry, the tested form may be a part): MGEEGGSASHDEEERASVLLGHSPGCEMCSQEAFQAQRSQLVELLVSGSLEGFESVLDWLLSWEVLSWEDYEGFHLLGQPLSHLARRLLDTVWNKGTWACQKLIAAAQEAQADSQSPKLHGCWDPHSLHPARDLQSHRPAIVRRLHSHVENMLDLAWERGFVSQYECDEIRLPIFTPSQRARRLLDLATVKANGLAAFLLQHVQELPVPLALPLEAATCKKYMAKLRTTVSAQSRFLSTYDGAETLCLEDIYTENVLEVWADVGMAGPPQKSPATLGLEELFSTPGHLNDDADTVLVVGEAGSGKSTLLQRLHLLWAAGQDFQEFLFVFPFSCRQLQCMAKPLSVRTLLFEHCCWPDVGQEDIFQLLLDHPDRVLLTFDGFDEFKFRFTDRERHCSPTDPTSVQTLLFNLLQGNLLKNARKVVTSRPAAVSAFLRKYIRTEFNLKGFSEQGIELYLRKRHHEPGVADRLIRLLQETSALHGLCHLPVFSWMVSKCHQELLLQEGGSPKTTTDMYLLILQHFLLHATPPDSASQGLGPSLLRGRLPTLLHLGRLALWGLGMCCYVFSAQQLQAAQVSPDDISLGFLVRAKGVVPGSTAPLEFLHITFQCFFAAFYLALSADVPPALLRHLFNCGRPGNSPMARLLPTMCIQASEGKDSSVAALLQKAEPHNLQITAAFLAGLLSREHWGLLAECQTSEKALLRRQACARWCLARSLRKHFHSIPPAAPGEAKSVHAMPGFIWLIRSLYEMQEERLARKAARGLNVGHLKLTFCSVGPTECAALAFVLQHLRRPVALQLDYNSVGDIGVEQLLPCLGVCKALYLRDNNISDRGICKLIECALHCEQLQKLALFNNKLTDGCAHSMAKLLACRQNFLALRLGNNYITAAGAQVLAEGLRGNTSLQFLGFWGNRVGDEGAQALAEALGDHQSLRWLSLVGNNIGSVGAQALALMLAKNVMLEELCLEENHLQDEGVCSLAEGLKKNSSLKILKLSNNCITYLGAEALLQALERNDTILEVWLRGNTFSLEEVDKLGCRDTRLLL

## CC1(C)Cc2c(sc(NC(=O)c3ccccc3Cl)c2C(=O)O)CO1
HEK293
  IC50: > 20 µM (inactive)
[1]
  IC50: > 20 µM (inactive)
Tumor necrosis factor
  IC50: > 20 µM (inactive)
[2]
  IC50: > 20 µM (inactive)

## CC(C)(C)Cc1nnc(NC(=O)COc2ccc(Cl)cc2Cl)o1
[3]
  EC50: 0.81 µM (active)

## CCOC(=O)C1(CCOc2ccccc2)CCN(Cc2cnc(C)s2)CC1
[4]
  EC50: > 92.5 µM (inactive)
Mu-type opioid receptor
  EC50: > 92.5 µM (inactive)
[5]
  EC50: 0.237 µM (active)
[6]
  EC50: > 92.5 µM (inactive)

## CCCn1c(NC(=O)c2cccc(S(=O)(=O)N3CCCC3)c2)nc2ccccc21
[7]
  EC50: 0.749 µM (active)
[8]
  IC50: 3.34 µM (active)
[9]
  AC50: 20.4 µM (active)
[10]
  AC50: 9.5 µM (active)
[11]
  AC50: 3.94 µM (active)
[12]
  AC50: 8.66 µM (active)
[13]
  AC50: 11.2 µM (active)
[14]
  AC50: 9.76 µM (active)
[15]
  IC50: 4.19 µM (active)
